Here are results for 3 compounds from patent publication US9072746B2, “Method for enhancing learning and memory impaired by neurodegenerative disorders and compounds and compositions for effecting the same” (The Board of Trustees of the Leland Stanford Junior …, priority 2010, dated 2015).

Entries after “also recorded” stand apart in the source; their conditions may differ.

For assay [1], the system named is male Ts65Dn mice. The assay is described as follows: Contextual fear conditioning. The class given is in vivo. The following applies: betaxolol 1 mg/kg s.c. plus xamoterol 3 mg/kg s.c. The protocol: Contextual and Cued fear conditioning was conducted for evaluation of fear-dependent learning and retrieval in the study. The test was performed using chambers from Coulbourn Instruments (Whitehall, Pa.). On the first day, the animals were placed in a chamber (Context A) for 3 min for baseline recording, followed by 5 tone-shock pairings. The shock (0.5 mA, 2 sec) was delivered following the tone (70 dB, 2 kHz, 20 sec) in each conditional/unconditional stimulus pairing. On the second day a novel chamber (Context B; new room, new olfactory environment, texture of floor, blue plastic inserts for walls, extra source of blue light, and visual cues) was used for cued testing. Three tones without shocks were presented to animals during a 3 min testing period following a 3 min pre-tone period. On the last day of the experiment, the mice were placed in Context A for 5 min without any conditional and unconditional stimulus {modified from the method described by (Saxe et al., 2006)}. Freezing was defined as the complete lack of motion for a minimum of 0.75 second as measured by FreezeFrame software (Actimetrics, Evanston, Ill.). The percent of freezing in each period was reported. For the startle response control test, an acoustic startle reflex apparatus (Med Associates Inc., St. Albans, Vt.) was used. The subjects were acclimated to the animal holder in the startle box for a total of 15 min over 3 consecutive-days prior to the experiment. The animals were exposed to 25 different trials with 10-20 second randomly variable inter-trial intervals. Five different intensities of startle pulses, 0, 90, 100, 110, and 120 dB, were randomly used, and each animal was randomly exposed 5 times to each intensity of the startle pulse. The duration of each startle pulse was 40 ms and the peak amplitude of the startle response in each trial was recorded for analysis. The holding cage on the apparatus was cleaned with 10% alcohol between each animal. […] In this part of the study, activity chamber and three cognitive tests, including T-maze spontaneous alternation, contextual fear conditioning (CFC), and novel object recognition were performed. In T-maze spontaneous alternation and contextual fear conditioning, both Ts65Dn and 2N male mice were divided into three treatment groups including normal saline (Vehicle), xamoterol, and betaxolol plus xamoterol groups. In the novel object recognition test, both Ts65Dn and 2N male mice were divided into two treatment groups, normal saline and xamoterol. The T-maze was performed exactly as previously described. […] On the first day (training day), animals were placed in the fear conditioning chamber, and after a 3-minute pre-shock period, they were exposed to 5 shocks (2 s, 0.5 mA,) with inter-trial intervals of 80 seconds and no tone. On the second day, the animals first received xamoterol, xamoterol plus betaxolol, or saline injection, and one hour later, they were placed in the same chamber for 5 minutes. Similar to the previous description of fear conditioning, freezing was defined as the complete lack of motion for a minimum of o.75 second. The Novel Object Recognition task is conducted in an open field arena (40 cm×40 cm). Mice were habituated in the testing room for 1 hour followed by 5 minutes habituation inside the arena without any objects. On 4th day animals were introduced 3 times to arena with 3 identical subjects for 10 minutes with 3 minutes inter trial intervals. On 5th day (24 hours after trainings) one of the objects replaced by a novel one and the time sniffing of each object were used for analysis. For testing the role of β1 adrenergic system, xamoterol and betaxolol (Tocris Bioscience, Ellisville, Mo.) were injected subcutaneously using 10 ml/kg normal saline as vehicle. Xamoterol, (3 mg/kg) was given one hour before testing and betaxolol (1 mg/kg) was given 30 minutes before testing.

Assay [2] deals with male Ts65Dn mice. As to the kind of experiment: T-maze spontaneous alternation. The assay is classed as in vivo. Particulars: betaxolol 1 mg/kg s.c. plus xamoterol 3 mg/kg s.c. An excerpt:
The T-maze had 3 equal arms (30 cm length, 10 cm width, and 20 cm height). The start arm and 2 goal arms had guillotine gates. This test was based on the rodents' preference to experience a new arm of the T-maze instead of a familiar one ([…], 1998). In each trial, the mouse was placed in the start arm. The gate was then opened and the mouse was able to freely explore the arms. As soon as the mouse entered one goal arm, the sliding gate of the other goal arm closed. The mouse eventually returned to the start arm and the next trial was started. In the next trial, the mouse may recognize the previously chosen goal arm and choose to explore a new arm rather than revisit the previously visited arm. This trial was repeated 11 times per day for 3 consecutive days, for a total of 33 trials. The maze was cleaned with 50% ethanol between trials to eliminate odor. Percent of alternation (number of turns in each goal arm) was used for analysis. This protocol has been described before by Belichenko et al. (2009) and is modified from a Deacon and Rawlins (2006) protocol (Deacon and Rawlins, 2006; Belichenko et al., 2009). […] In this part of the study, activity chamber and three cognitive tests, including T-maze spontaneous alternation, contextual fear conditioning (CFC), and novel object recognition were performed. In T-maze spontaneous alternation and contextual fear conditioning, both Ts65Dn and 2N male mice were divided into three treatment groups including normal saline (Vehicle), xamoterol, and betaxolol plus xamoterol groups. In the novel object recognition test, both Ts65Dn and 2N male mice were divided into two treatment groups, normal saline and xamoterol. The T-maze was performed exactly as previously described. […] On the first day (training day), animals were placed in the fear conditioning chamber, and after a 3-minute pre-shock period, they were exposed to 5 shocks (2 s, 0.5 mA,) with inter-trial intervals of 80 seconds and no tone. On the second day, the animals first received xamoterol, xamoterol plus betaxolol, or saline injection, and one hour later, they were placed in the same chamber for 5 minutes. Similar to the previous description of fear conditioning, freezing was defined as the complete lack of motion for a minimum of o.75 second. The Novel Object Recognition task is conducted in an open field arena (40 cm×40 cm). Mice were habituated in the testing room for 1 hour followed by 5 minutes habituation inside the arena without any objects. On 4th day animals were introduced 3 times to arena with 3 identical subjects for 10 minutes with 3 minutes inter trial intervals. On 5th day (24 hours after trainings) one of the objects replaced by a novel one and the time sniffing of each object were used for analysis. For testing the role of β1 adrenergic system, xamoterol and betaxolol (Tocris Bioscience, Ellisville, Mo.) were injected subcutaneously using 10 ml/kg normal saline as vehicle. Xamoterol, (3 mg/kg) was given one hour before testing and betaxolol (1 mg/kg) was given 30 minutes before testing.

Assay [3] relates to C57Bl/6J mice. The assay is described as follows: Contextual fear conditioning memory retrieval (FIG. 10A, B). The assay is classed as in vivo. Particulars: betaxolol 1 mg/kg, atenolol 3 mg/kg s.c. As for the experimental part: In all experiments xamoterol 3 mg/kg, atenolol 3 mg/kg, and betaxolol 1 mg/kg were injected subcutaneously. […] Results are shown as mean+SEM (ns=not significant, *=p<0.05, and **=p<0.01).

Assay [4] has as its system Ts65Dn mice. The following applies: restoration of norepinephrine level; cited from earlier work.
For assay [5], the system named is Ts65Dn mice. The following applies: restoration of norepinephrine level; cited from earlier work. The source holds these as a separate data set.

As to `CC(C)NCC(O)COc1ccc(CCOCC2CC2)cc1` (stereo not drawn) [betaxolol], the “effect of betaxolol on xamoterol's rescue of contextual fear conditioning” value in assay [1] is “completely reversed; also recorded: prevents or blocks; also recorded: completely blocked; also recorded: betaxolol prevents this effect”. Also, the “effect of betaxolol on xamoterol's rescue of spontaneous alternation” value in assay [2] is “completely reversed; also recorded: prevented or blocked; also recorded: blocked; also recorded: betaxolol prevents this effect”. Further, the “effect on memory retrieval of contextual fear conditioning” value in assay [3] is recorded as “impaired”.
Take `CC(C)NCC(O)COc1ccc(CC(N)=O)cc1` (stereo not drawn) [atenolol]: the “effect on memory retrieval of contextual fear conditioning” value in assay [3] is “did not have such an effect”.
Regarding `N[C@H](C(=O)O)[C@H](O)c1ccc(O)c(O)c1` [L-DOPS, L-threo-3,4-dihydroxyphenylserine], the “effect on hippocampal-mediated contextual deficit in fear conditioning” value in assay [4] is recorded as “restored”. Moreover, the “effect on nesting behavior” value in assay [5] was “restored”.
